Key:
[1] = molecular target: T1, Substance-K receptor (Homo sapiens, UniProt P21452); experiment: Displacement of [125I]NKA from human Tachykinin receptor 2 expressed in CHO cells; assay type: cell-based
T1 sequence (P21452 whole entry): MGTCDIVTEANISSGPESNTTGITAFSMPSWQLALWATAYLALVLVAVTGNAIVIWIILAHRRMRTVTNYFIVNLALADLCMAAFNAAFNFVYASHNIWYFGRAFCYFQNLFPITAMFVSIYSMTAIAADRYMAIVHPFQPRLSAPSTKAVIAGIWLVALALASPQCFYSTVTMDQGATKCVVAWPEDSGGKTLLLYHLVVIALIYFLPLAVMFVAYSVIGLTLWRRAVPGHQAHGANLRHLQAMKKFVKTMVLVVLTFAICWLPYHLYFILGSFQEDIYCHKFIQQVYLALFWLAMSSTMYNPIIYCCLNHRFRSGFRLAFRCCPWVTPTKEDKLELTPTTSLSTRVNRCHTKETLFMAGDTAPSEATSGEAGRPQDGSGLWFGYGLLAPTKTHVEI

[2] = molecular target: T2, Substance-K receptor (Oryctolagus cuniculus, UniProt P79218); experiment: In vitro functional activity towards Neurokinin NK2 receptor on isolated rabbit urinary bladder (RUB); conditions: for Kb: read-out: pA2 (converted)
T2 sequence (P79218 whole entry): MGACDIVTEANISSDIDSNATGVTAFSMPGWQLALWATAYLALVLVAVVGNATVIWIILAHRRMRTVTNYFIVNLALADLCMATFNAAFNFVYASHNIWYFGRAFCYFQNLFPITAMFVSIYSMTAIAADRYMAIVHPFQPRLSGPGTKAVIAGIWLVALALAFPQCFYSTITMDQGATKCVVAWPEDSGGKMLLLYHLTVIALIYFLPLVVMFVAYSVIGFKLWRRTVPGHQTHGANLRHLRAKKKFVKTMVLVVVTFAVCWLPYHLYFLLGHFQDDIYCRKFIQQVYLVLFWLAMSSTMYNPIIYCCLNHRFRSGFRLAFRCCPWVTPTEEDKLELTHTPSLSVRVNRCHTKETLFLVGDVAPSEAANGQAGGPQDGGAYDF

| Structure (SMILES) | Ki [1] | Kb [2] | pA2 [2] |
| --- | --- | --- | --- |
| O=C1C[C@@H](CC(=O)N2CCC(N3CCCCC3)CC2)C(=O)NC[C@@H](Cc2ccccc2)NC(=O)[C@@H](Cc2ccccc2)NC(=O)[C@H](Cc2c[nH]c3ccccc23)N1 | 1.58 nM | 2.51 nM |  |
| O=C1C[C@H](CC(=O)N2CCC(N3CCCCC3)CC2)C(=O)NC[C@@H](Cc2ccccc2)NC(=O)[C@@H](Cc2ccccc2)NC(=O)[C@H](Cc2c[nH]c3ccccc23)N1 | 5.01 nM | 3.98 nM |  |
| O=C1CC(C(=O)N2CCN(CCOCCO)CC2)C(=O)NC[C@@H](Cc2ccccc2)NC(=O)[C@@H](Cc2ccccc2)NC(=O)[C@H](Cc2c[nH]c3ccccc23)N1 (some centres not stated) | 1.58 nM | 1 nM |  |
| CC(=O)NC1C(NC(=O)C[C@@H]2CC(=O)N[C@@H](Cc3c[nH]c4ccccc34)C(=O)N[C@H](Cc3ccccc3)C(=O)N[C@H](Cc3ccccc3)CNC2=O)OC(CO)C(O)C1O (some centres not stated) | 7.94 nM | 6.31 nM |  |
| CC(=O)NC1C(NC(=O)C2CC(=O)N[C@@H](Cc3c[nH]c4ccccc34)C(=O)N[C@H](Cc3ccccc3)C(=O)N[C@H](Cc3ccccc3)CNC2=O)OC(CO)C(O)C1O (some centres not stated) | 2.51 nM | 3.98 nM |  |
| CN(C)CCNC(=O)C[C@@H]1CC(=O)N[C@@H](Cc2c[nH]c3ccccc23)C(=O)N[C@H](Cc2ccccc2)C(=O)N[C@H](Cc2ccccc2)CNC1=O | 6.31 nM | 3.16 nM |  |
| CC(=O)NC1C(NC(=O)C[C@H]2CC(=O)N[C@@H](Cc3c[nH]c4ccccc34)C(=O)N[C@H](Cc3ccccc3)C(=O)N[C@H](Cc3ccccc3)CNC2=O)OC(CO)C(O)C1O (some centres not stated) | 6.31 nM | 7.94 nM |  |
| O=C1C[C@@H](CC(=O)N2CCOCC2)C(=O)NCC(Cc2ccccc2)NC(=O)C(Cc2ccccc2)NC(=O)[C@H](Cc2c[nH]c3ccccc23)N1 (single isomer, unassigned) | 0.631 nM | 1 nM |  |
| O=C(C[C@@H]1CC(=O)N[C@@H](Cc2c[nH]c3ccccc23)C(=O)NC(Cc2ccccc2)C(=O)NC(Cc2ccccc2)CNC1=O)NC1OC(CO)C(O)C(O)C1O (single isomer, unassigned) | 10 nM | 6.31 nM |  |
| O=C1CC(C(=O)N2CCOCC2)C(=O)NCC(Cc2ccccc2)NC(=O)C(Cc2ccccc2)NC(=O)[C@H](Cc2c[nH]c3ccccc23)N1 (single isomer, unassigned) | 0.126 nM | 0.631 nM |  |
| O=C1CC(C(=O)NC(CO)CO)C(=O)NCC(Cc2ccccc2)NC(=O)C(Cc2ccccc2)NC(=O)[C@H](Cc2c[nH]c3ccccc23)N1 (single isomer, unassigned) | 3.98 nM | 3.16 nM |  |
| O=C1CCC(=O)N[C@@H](Cc2c[nH]c3ccccc23)C(=O)NC(Cc2ccccc2)C(=O)N[C@H](Cc2ccccc2)CN1 (single isomer, unassigned) |  | 5.01 nM |  |
| O=C1CC(C(=O)N2CCC(N3CCCCC3)CC2)C(=O)NCC(Cc2ccccc2)NC(=O)C(Cc2ccccc2)NC(=O)[C@H](Cc2c[nH]c3ccccc23)N1 (single isomer, unassigned; 8e) | 0.0501 nM | 0.794 nM |  |
| O=C1CC(C(=O)N2CCC(N3CCCCC3)CC2)C(=O)NCC(Cc2ccccc2)NC(=O)C(Cc2ccccc2)NC(=O)[C@H](Cc2c[nH]c3ccccc23)N1 (single isomer, unassigned; 8f) | 0.316 nM |  | 9.1 |

From ChEMBL document CHEMBL1135081, “Insertion of 2-carboxysuccinate and tricarballylic acid fragments into cyclic-pseudopeptides: new antagonists for the human tachykinin NK-2 receptor” (Bioorg Med Chem Lett, 2002)
